Values of other authors in patent US11576862B2, “Methods and compositions for preparing a silk microsphere” (Trustees of Tufts College, priority 2012, dated 2023).
Counter-ions that a name gives are not always drawn.

water solubility: 50 mg/mL
Compound: CC12CC3CC(C)(C1)CC(N)(C3)C2 [Memantine hydrochloride, 3,5-dimethyltricyclo[3.3.1.1]decan-1amine]
